For series [1] the following is noted: cited from earlier work; for ODT (ppb): odor detection threshold, Table 3.
Series [2] is described as follows: Stability and malodor coverage evaluation of odorants in permanent hair color crème (10% ammonia). Further details: key to malodor coverage rating 1 Week RT / malodor coverage rating 1 Week Oven / malodor coverage rating 6 Weeks RT / malodor coverage rating 6 Weeks Oven / malodor coverage rating 2 Weeks RT / malodor coverage rating 2 Weeks Oven / malodor coverage rating 3 Weeks RT / malodor coverage rating 3 Weeks Oven / malodor coverage rating 4 Weeks RT / malodor coverage rating 4 Weeks Oven / malodor coverage rating 5 Weeks RT / malodor coverage rating 5 Weeks Oven: E: excellent; VG: very good; G: good coverage; key to odorant performance 1 Week RT / odorant performance 1 Week Oven / odorant performance 2 Weeks RT / odorant performance 2 Weeks Oven / odorant performance 3 Weeks RT / odorant performance 3 Weeks Oven / odorant performance 4 Weeks RT / odorant performance 4 Weeks Oven: E=excellent; VG=very good; G=good; F=fair; P=poor. The source says: The marks E, VG, G stand for excellent, very good and good coverage and are part of a 5 scale rating system. […] Odorants were put up at 0.2% in the formulation, and odorants were subjected to 6 week stability testing at room temperature (R.T.) and […] oven temperature. […] G=good, F=fair; P=poor).

The structures appear in SMILES notation.

For the molecule `CCOC(=O)C(C)CC` (centres unmarked) [ethyl-2-methylbutyrate], the “ODT (ppb)” value in series [1] is on record as “less than 50 ppb”.

For `CCCCCC=O` [hexanal], in series [1], the “ODT (ppb)” value is “less than 50 ppb”.

As for `CCCCCCOC(C)=O` [hexyl acetate], the “ODT (ppb)” value in series [1] is recorded as “less than 50 ppb”.

As for `COC(=O)C=C1CCCC1` [methyl cyclopentylidene acetate], in series [1], the “ODT (ppb)” value is “less than 50 ppb”.

Take `CCCCCCOC` [methyl hexyl ether]: the “ODT (ppb)” value in series [1] is on record as “less than 50 ppb”.

Regarding `CCCCCOC(C)=O` [pentyl acetate], the “ODT (ppb)” value in series [1] is listed as “less than 50 ppb”.

With `CCCOC(=O)CCC` [propyl butyrate], the “ODT (ppb)” value in series [1] is listed as “less than 50 ppb”.

In the case of `CC=CC(=O)C1=C(C)CCCC1(C)C` [β-damascone, β-1-(2,6,6-trimethyl-1-cyclohexen-1-yl)-2-buten-1-one], the “malodor coverage rating 1 Week Oven” value in series [2] (10% ammonia formulation, 1 week, oven at 37° C.) is “VG”. The “malodor coverage rating 1 Week RT” value in series [2] (10% ammonia formulation, 1 week, room temperature) is “E”. The “malodor coverage rating 2 Weeks Oven” value in series [2] (10% ammonia formulation, 2 weeks, oven at 37° C.) is on record as “VG”. Besides, the “malodor coverage rating 2 Weeks RT” value in series [2] (10% ammonia formulation, 2 weeks, room temperature) is “E”. For the same molecule, the “malodor coverage rating 3 Weeks Oven” value in series [2] (10% ammonia formulation, 3 weeks, oven at 37° C.) is on record as “G”. In addition, the “malodor coverage rating 3 Weeks RT” value in series [2] (10% ammonia formulation, 3 weeks, room temperature) is on record as “VG”. For the same molecule, the “malodor coverage rating 4 Weeks Oven” value in series [2] (10% ammonia formulation, 4 weeks, oven at 37° C.) is recorded as “G”. Moreover, in series [2] (10% ammonia formulation, 4 weeks, room temperature), the “malodor coverage rating 4 Weeks RT” value is “VG”. Further, the “malodor coverage rating 5 Weeks Oven” value in series [2] (10% ammonia formulation, 5 weeks, oven at 37° C.) is “G”. Also, the “malodor coverage rating 5 Weeks RT” value in series [2] (10% ammonia formulation, 5 weeks, room temperature) was “VG”. For the same molecule, the “malodor coverage rating 6 Weeks Oven” value in series [2] (10% ammonia formulation, 6 weeks, oven at 37° C.) is recorded as “G”. The “malodor coverage rating 6 Weeks RT” value in series [2] (10% ammonia formulation, 6 weeks, room temperature) was “G”. Also, the “odorant performance 1 Week Oven” value in series [2] (odorant at 0.2% in dye less permanent hair color crème (10% ammonia hydroxide), 1 week, oven temperature) is on record as “VG”. Also, the “odorant performance 1 Week RT” value in series [2] (odorant at 0.2% in dye less permanent hair color crème (10% ammonia hydroxide), 1 week, room temperature) is given as “E”. Besides, the “odorant performance 2 Weeks Oven” value in series [2] (odorant at 0.2% in dye less permanent hair color crème (10% ammonia hydroxide), 2 weeks, oven temperature) is “VG”. Moreover, the “odorant performance 2 Weeks RT” value in series [2] (odorant at 0.2% in dye less permanent hair color crème (10% ammonia hydroxide), 2 weeks, room temperature) is “E”. For the same molecule, the “odorant performance 3 Weeks Oven” value in series [2] (odorant at 0.2% in dye less permanent hair color crème (10% ammonia hydroxide), 3 weeks, oven temperature) is “G”. Further, in series [2] (odorant at 0.2% in dye less permanent hair color crème (10% ammonia hydroxide), 3 weeks, room temperature), the “odorant performance 3 Weeks RT” value was “VG”. Also, the “odorant performance 4 Weeks Oven” value in series [2] (odorant at 0.2% in dye less permanent hair color crème (10% ammonia hydroxide), 4 weeks, oven temperature) is “G”. Further, the “odorant performance 4 Weeks RT” value in series [2] (odorant at 0.2% in dye less permanent hair color crème (10% ammonia hydroxide), 4 weeks, room temperature) is given as “VG”. In addition, the “odor detection threshold value in water” value in series [1] (in water) is given as 0.09 parts per billion.

On to `CCC(C)COC(C)=O` (stereo not drawn) [β-methyl butyl acetate], for which the “ODT (ppb)” value in series [1] was “less than 50 ppb”.

Values taken from patent publication US7585833B2, “Malodor covering perfumery” (Givaudan Fragrances Corporation, priority 2005, dated 2009).
